According to patent EP4703359A1 (Shanghai Simr Biotechnology Co., Ltd., priority 2023, dated 2024):

Legend:
[1] = biological target: T1, α2-GABAA receptor (Homo sapiens, UniProt P18507+P47869); experiment: Radioactive ligand (3H-flunitrazepam) competitive binding assay, BZD site of membrane proteins of α2-GABAAR-HEK293 cells; conditions: competition with 1 nM 3H-flunitrazepam; HEK293 membranes expressing α2, β3, γ2 subunits; Ki calculated from IC50; read-out: α2 Ki
T1 construct: expressed in transfected cells
Excerpt: The α subunit, β subunit, and γ subunit are indispensable for forming a fully functional GABAA receptor. In this example, HEK293 cells stably expressing α2-GABAA receptors (α2-GABAAR) were constructed and screened respectively via liposome transfection (Felgner, P.L., et al. Proceedings of the National Academy of Sciences, 1987, 84: 7413-7417). The α2-GABAAR-HEK293 cell model co-expresses the α2 subunit (protein sequence referenced under GenBank accession number: NM_000807.4), β3 subunit (protein sequence referenced under GenBank accession number: NM_000814.5), and γ2 subunit (protein sequence referenced under GenBank accession number: NM_000816.3).
The above cell lines were subcultured. α2-GABAAR-HEK293 cells were amplified for testing the affinity of compounds to the benzodiazepine (BZD) site of GABAA receptors. Some of the α2-GABAAR-HEK293 cells in suspension during subculturing were plated on glass slides pre-treated with Poly-D-Lysine for electrophysiological testing (method reference: Patent CN 107344936 A, paragraph 0586).
The affinity of the compound for the α2-GABAA receptor was determined by competing with ^3H-flunitrazepam (isotope ^3H-labeled flunitrazepam) for binding to the BZD site of membrane proteins in HEK293 cells stably expressing human α2-GABAAR.
Membrane preparation: Cells were suspended in 50 mM Tris-HCl buffer (pH=7.4), homogenized on ice using a homogenizer for 20 seconds with 10 repetitions, and centrifuged at 4°C, 1000g for 10 minutes. The supernatant was collected, and the above steps were repeated. The supernatant was centrifuged at 4°C (33,800 × g; Thermo, rotor: A27-8x50) for 60 minutes, and the pellet was resuspended in Tris buffer (50 mM Tris-HCl, 10 mM MgCl2, 0.5 mM EDTA, 10% glycerol). The protein concentration was determined using the bicinchoninic acid (BCA) protein assay based on the copper ion reduction method (BCA kit purchased from Pierce (Annoron)). Aliquots of 1 mL were prepared and stored at -80°C.
Radioactive ligand competitive binding assay: This assay was conducted in a 200 µL system (96-well plate), containing 100 µL of cell membrane. The concentration of ^3H-flunitrazepam was 1 nM, and the concentration of the test compound ranged from […]. Flumazenil was used as a control. The low signal control well (Low Control, LC) was added with 1 µL of 2 mM flumazenil (final concentration 10 µM), while the high signal control well (High Control, HC) was added with 1 µL of dimethyl sulfoxide. The final concentration of the target membrane protein was 5 µg/well. All test compound stock solutions were prepared as 10 mM solutions in dimethyl sulfoxide. The working concentration of the samples was prepared by diluting all samples to 0.2 mM with dimethyl sulfoxide, followed by a 4-fold serial dilution to obtain a total of 8 concentration gradients. The 96-well plate was sealed with sealing film and then incubated on a shaker at room temperature for 1 hour. The GF/C filter plate was also soaked with a soaking buffer (0.3% PEI (polyethyleneimine, purchased from: Sigma-Aldrich, model: P314), stored at 4°C) for at least 0.5 hours. After the incubation was completed, the mixture was collected onto a GF/C filter plate using a cell harvester and washed four times with wash buffer (50 mM Tris-HCl, pH 7.4, stored at 4°C). After drying in a 50°C oven for 1 hour, the dried GF/C filter plate was sealed at the bottom with a film. The residual radioactivity on the filter membrane was detected using liquid scintillation counting. Each well was filled with 50 µL of scintillation fluid and sealed. Readings were taken using a Microbeta^2 (microplate counter, purchased from PerkinElmer, model: CNLL0153). The inhibitory activity of the test sample on the binding of ^3H-flunitrazepam to GABAA receptor membrane protein was calculated. […]

[2] = biological target: T1, α2-GABAA receptor; experiment: Whole-cell patch-clamp electrophysiology, positive allosteric modulatory activity in α2-GABAAR-HEK293 cells; format: cell-based; conditions: compound 100 nM; GABA 0.10 to 0.11 µM (approximately EC7-8); normalized to reference compound CVL-865 (= 100%); read-out: α2-GABAAR Positive allosteric modulatory activity
Procedure, shortened: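 HEK293 cells stably co-expressing α2β3γ2 GABAA receptor, whole-cell patch clamp at -60 mV. Compounds at 100 nM final applied with GABA 0.10–0.11 µM (~EC7-8) after GABA-only current stabilized. […]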

| Structure (SMILES) | Ki [1] [nM] | Emax at 0.1 µM [2] [%] |
| --- | --- | --- |
| CCCNC(=O)c1nc2c(-c3ccc(F)c(C#N)c3)cccn2c1N [Example 56, 3-Amino-8-(3-cyano-4-fluorophenyl)-N-propylimidazo[1,2-a]pyridine-2-carboxamide] | 38.2 | 95 |
| CCCNC(=O)c1nc2c(-c3c(F)ccc(C)c3OC)cccn2c1N [Example 78, 3-Amino-8-(6-fluoro-2-methoxy-3-methylphenyl)-N-propylimidazo[1,2-a]pyridine-2-carboxamide] | 31.7 | 74 |
| CCCNC(=O)c1nc2c(-c3ccc(F)cc3OC)cccn2c1N [Example 53, 3-Amino-8-(4-fluoro-2-methoxyphenyl)-N-propylimidazo[1,2-a]pyridine-2-carboxamide] | 57 | 92 |
| COc1ccc(F)c(F)c1-c1cccn2c(N)c(C(=O)NC3CC(C)C3)nc12 (stereo not drawn) [Example 32, 3-Amino-8-(2,3-difluoro-6-methoxyphenyl)-N-(3-methylcyclobutyl)imidazo[1,2-a]pyridine-2-carboxamide] | 7.33 | 50 |
| CCCNC(=O)c1nc2c(-c3cccc(C#N)c3)cccn2c1N [Example 35, 3-Amino-8-(3-cyanophenyl)-N-propylimidazo[1,2-a]pyridine-2-carboxamide] | 13.3 | 108 |
| COc1cccc(F)c1-c1cccn2c(N)c(C(=O)NC3CCCC3)nc12 [Example 12, 3-Amino-N-cyclopentyl-8-(2-fluoro-6-methoxyphenyl)imidazo[1,2-a]pyridine-2-carboxamide] | 34.1 | 32 |
| COc1cccc(F)c1-c1cccn2c(N)c(C(=O)NC3CC(C)C3)nc12 (stereo not drawn) [Example 8, 3-Amino-8-(2-fluoro-6-methoxyphenyl)-N-(3-methylcyclobutyl)imidazo[1,2-a]pyridine-2-carboxamide] | 11.9 | 66 |
| CCCNC(=O)c1nc2c(-c3c(F)cccc3OC)nccn2c1N [Example 135, 3-amino-8-(2-fluoro-6-methoxyphenyl)-N-propylimidazo[1,2-a]pyrazine-2-carboxamide] | 81.1 | 60 |
| COc1cccc(F)c1-c1cccn2c(N)c(C(=O)NCCC(F)(F)F)nc12 [Example 25, 3-Amino-8-(2-fluoro-6-methoxyphenyl)-N-(3,3,3-trifluoropropyl)imidazo[1,2-a]pyridine-2-carboxamide] | 28.8 | 91 |
| CCCNC(=O)c1nc2c(-c3c(F)cccc3OC)c(F)ccn2c1N [Example 122, 3-Amino-7-fluoro-8-(2-fluoro-6-methoxyphenyl)-N-propylimidazo[1,2-a]pyridine-2-carboxamide] | 11.4 | 105 |
| CCCNC(=O)c1nc2c(-c3cc(Cl)ccc3OC)cccn2c1N [Example 62, 3-Amino-8-(5-chloro-2-methoxyphenyl)-N-propylimidazo[1,2-a]pyridine-2-carboxamide] | 5.29 | 192 |
| [2H]c1ccc(OC)c(-c2cccn3c(N)c(C(=O)NCCC)nc23)c1F [Example 136, 3-Amino-8-(2-fluoro-6-methoxyphenyl-3-d)-N-propylimidazo[1,2-a]pyridine-2-carboxamide] | 17.6 | 91 |
| CCCNC(=O)c1nc2c(-c3cccc(OC)c3F)cccn2c1N [Example 63, 3-Amino-8-(2-fluoro-3-methoxyphenyl)-N-propylimidazo[1,2-a]pyridine-2-carboxamide] | 10.2 | 71 |
| CCCNC(=O)c1nc2c(-c3cc(C#N)ccc3OC)cccn2c1N [Example 60, 3-Amino-8-(5-cyano-2-methoxyphenyl)-N-propylimidazo[1,2-a]pyridine-2-carboxamide] | 5.7 | 140 |
| COc1cccc(F)c1-c1cccn2c(N)c(C(=O)Nc3cc(C)on3)nc12 [Example 16, 3-Amino-8-(2-fluoro-6-methoxyphenyl)-N-(5-methylisoxazol-3-yl)imidazo[1,2-a]pyridine-2-carboxamide] | 19.3 | 200 |
